Like-named read-outs stand apart in the source and are kept apart here.
System: Lox-IMVI melanoma cell line
Assay: Lox-IMVI anti-proliferative assay (growth inhibition, Cell Titer-Glo)
Type: cell-based, human
In short: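 Lox-IMVI cells in RPMI+10% FBS exposed 72 h at 37 °C to 10-point, 3-fold dilutions (0.5 nM–10 μM; 0.2% DMSO final), in duplicate. Viability by Cell Titer-Glo luminescence, with a t0 cell-number reading; data as % of DMSO control; IC50 from a four-parameter logistic fit.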

[1] = Homo sapiens, Lox-IMVI melanoma cell line, anti-proliferative assay, read-out: Activity (IC50 activity level)
[2] = Homo sapiens, Lox-IMVI anti-proliferative assay, cell-based, read-out: Activity (IC50 activity level)

Row | Molecule | IC50 [1] [nM] | IC50 [2] [nM] | further results
1 | CNC(=O)N1CCC[C@@H](Nc2ncc3nc(Nc4c(Cl)cc(C(F)(F)F)cc4Cl)n([C@H]4CC[C@@H](C(N)=O)CC4)c3n2)C1 [Example 796, (R)-3-(9-((1s,4S)-4-carbamoylcyclohexyl)-8-(2,6-dichloro-4-(trifluoromethyl)phenylamino)-9H-purin-2-ylamino)-N-methylpiperidine-1-carboxamide] | > 1000 | – | –
2 | CC(=O)N1CCC[C@@H](Nc2ncc3nc(Nc4c(F)cc(F)cc4Cl)n([C@H]4CC[C@@H](C(N)=O)CC4)c3n2)C1 [Example 797, (1S,4s)-4-(2-((R)-1-acetylpiperidin-3-ylamino)-8-(2-chloro-4,6-difluorophenylamino)-9H-purin-9-yl)cyclohexanecarboxamide] | > 1000 | – | –
3 | CC(=O)N1CCC[C@@H](Nc2ncc3nc(Nc4c(Cl)cc(C(F)(F)F)cc4Cl)n([C@H]4CC[C@@H](C(N)=O)CC4)c3n2)C1 [Example 798, (1S,4s)-4-(2-((R)-1-acetylpiperidin-3-ylamino)-8-(2,6-dichloro-4-(trifluoromethyl)phenylamino)-9H-purin-9-yl)cyclohexanecarboxamide] | > 1000 | – | –
4 | CC(=O)N1CCC[C@@H](Nc2ncc3nc(Nc4c(Cl)cc(F)cc4Cl)n([C@H]4CC[C@@H](C(N)=O)CC4)c3n2)C1 [Example 799, (1S,4s)-4-(2-((R)-1-acetylpiperidin-3-ylamino)-8-(2,6-dichloro-4-fluorophenylamino)-9H-purin-9-yl)cyclohexanecarboxamide] | – | > 1000 | –
5 | CC(=O)N1CCC[C@@H](Nc2ncc3nc(Nc4c(Cl)cccc4Cl)n([C@H]4CC[C@@H](C(N)=O)CC4)c3n2)C1 [Example 800, (1S,4s)-4-(2-((R)-1-acetylpiperidin-3-ylamino)-8-(2,6-dichlorophenylamino)-9H-purin-9-yl)cyclohexanecarboxamide] | – | > 1000 | –
6 | N#Cc1cc(F)c(Nc2nc3cnc(N[C@@H]4CCOC[C@H]4F)nc3n2[C@H]2CC[C@@H](C(N)=O)CC2)c(F)c1 [Example 801, (1S,4s)-4-(8-(4-cyano-2,6-difluorophenylamino)-2-((3S,4R)-3-fluorotetrahydro-2H-pyran-4-ylamino)-9H-purin-9-yl)cyclohexanecarboxamide] | – | < 250 | –
7 | C[C@]1(C(N)=O)CC[C@@H](n2c(Nc3c(Cl)cc(Cl)cc3Cl)nc3cnc(N[C@H]4CCOC[C@@H]4F)nc32)CC1 [Example 802, (1R,4s)-4-(2-(((3R,4S)-3-fluorotetrahydro-2H-pyran-4-yl)amino)-8-((2,4,6-trichlorophenyl)amino)-9H-purin-9-yl)-1-methylcyclohexane-1-carboxamide] | – | < 250 | –
8 | (R)-isopropyl 3-(9-((1s,4S)-4- carbamoylcyclohexyl)-8-(2-chloro-4- cyano-6-fluorophenylamino)-9H-purin- 2-ylamino)piperidine-1-carboxylate [Example 776] | – | – | IC50 (Lox-IMVI melanoma cell line, anti-proliferative assay, read-out: Activity (IC50 activity level)): 500 to 1000 nM
9 | (R)-methyl 3-(9-((1s,4S)-4- carbamoylcyclohexyl)-8-(2,3,4- trifluorophenylamino)-9H-purin-2- ylamino)piperidine-1-carboxylate [Example 414] | – | – | IC50 (Lox-IMVI anti-proliferative assay, IC50 activity level, read-out: Activity): > 1000 nM

— patent publication US11590139B2, “Substituted aminopurine compounds, compositions thereof, and methods of treatment therewith” (Signal Pharmaceuticals, LLC, priority 2014, dated 2023)
